Data as given in patent publication US8809368B2, “Compounds affecting gap junction activity” (Kansas State University Research Foundation, priority 2006, dated 2014).

Key:
T47D cells = experiment: Scrape load/dye transfer (SL/DT) GJIC assay, T47D cells; type: cell-based, human
Protocol: In the experiments for FIG. 9, T47D cells were dosed with 100, 200 and 400 nM of PQ1 for 40 minutes. Lucifer yellow, a gap junctional permeable dye, was used to measure the GJIC. Rhodamine dextran was used as a control. The dotted line in FIG. 9 indicates the line of cut. This increase could be due to the interaction between the PQ1 and the connexin proteins which leads to the opening of the gap junction channel. PQ1 exerted no effect on the cell morphology of T47D cells (data not shown).
Scrape load dye transfer technique (SL/DT): Lucifer yellow is an intensely fluorescent […] dye having low molecular weight (Mr 457.2) and passes from one cell to another through gap junctions only. Rhodamine dextran is a high molecular weight polymer (Mr 10,000) used as a control as passes only through injured plasma membrane. Cells were grown to 90% confluency on cover slips, dosed with PQ 1 for 40 minutes. The 2.5 μl of 1% (w/v) Lucifer yellow and 0.75% (w/v) of Rhodamine dextran was mixed and added in the center of the coverslip. Two cuts crossing each other in the center of the coverslip were made. After three minutes, cells were washed with PBS and incubated at 37° C. in tissue culture media for 20 minutes. Cells were fixed and mounted on a slide, sealed and visualized under a fluorescence microscope at 10× objective.
(§1) Intercellular communication in many organs is maintained via GJIC. Several GJIC enhancers have been reported; however, an effective clinical drug targeting gap junction is not available at this time. The effect of PQ1 on the GJIC activity in T47D breast cancer cells was tested. […] Conversely, PQ1 has no effect on GJIC activity of human primary epithelial cells (MEC, normal cells) compared to its controls (data not shown). The distance of dye transfer from section cut to the farthest cells with dye was measured. […] MECs have uniform uptake of Lucifer yellow. This is due to the existing high level of gap junction activity of these normal cells.
Gap Junction Activity. […] Cells were mounted on a slide, sealed and visualized under a fluorescence microscope at 10× objective.

[1] = test system: human primary epithelial cells (MEC, normal cells); experiment: Scrape load/dye transfer GJIC assay, primary epithelial cells (MEC); type: cell-based; conditions: compared to its controls
Protocol: as §1
Gap Junction Activity. For scrape load/dye transfer (SL/DT) assay, cells were grown to 90% confluency on cover slips, dosed with 10, 50, 100 and 200 nM of TCDD for 40 minutes. After that cells were washed three times with PBS. The 2.5 μl of 1% (w/v) Lucifer yellow and 0.75% (w/v) of Rhodamine dextran was mixed and added in the center of the coverslip. Two cuts crossing each other in the center of the coverslip were made. After three minutes, cells were washed three times with PBS and incubated at 37° C. in tissue culture media for 20 minutes. The cells were then washed with PBS three times and fixed in 2.5% paraformaldehyde for 10 minutes. Cells were mounted on a slide, sealed and visualized under a fluorescence microscope at 10× objective.

[2] = MTT assay, cell proliferation and viability, T47D cells; type: cell-based, human; conditions: human, T47D breast cancer cells
Protocol: T47D breast cancer cells were treated with various concentrations of PQ1 for 24 hours. MTT assay was performed with adherent cell cultures using a culture medium free of phenol red and of serum. Solution containing MTT was metabolized by the cells (incubation period 3 hours). After solubilization of the MTT crystals with the solubilization solution MTT, the amount of dye was measured spectrophotometrically at 540 nm.
MTT assay: This assay is done to measure cell proliferation and viability. Yellow MTT (3-(4,5-Dimethylthiazol-2-yl)-2,5-diphenyltetrazolium bromide, a tetrazole) is reduced to purple crystals, formazan in the mitochondria of living cells. A solubilization solution is added to dissolve the insoluble purple formazan product into a colored solution. The absorbance of this colored solution can be measured by a spectrophotometer. T47 D cells (20,000) were grown in 96-well plate and dosed with 10, 100, 200, 500 nM of PQ1 compound in 100 μl of complete media for 24 hours. MTT (20 μl) was added to the cells and purple formazan crystals were observed after 90 minutes. A solubilization solution (0.35 N HCl) was added to dissolve the formazan and the absorbance was measured at 595 nm wavelength with a background wavelength 690 nm by a spectrophotometer.
(§2) The cytotoxicity of PQ1 in MEC and T47D cells using MTT assay was also determined. Cells were treated with 10, 100, 200, and 500 nM PQ1 for 24 hours. MTT assay was performed according to the manufacture's recommendations. A 200 nM PQ1 has 67% cell viability compared to controls (FIG. 16). Treatments of 100 and 200 nM PQ1 have 95% and 103% MEC cell viability compared to control. However, both MEC and T47D cells decrease cell viability to 50% and 65% at 1 μM PQ1, respectively. Thus, 100-200 nM of PQ1 is sufficient to enhance GJIC activity.
MTT assay. […] After solubilization of the MTT crystals with the solubilization solution MTT, the amount of dye will be measured spectrophotometrically at 540 nm.

MEC = experiment: MTT assay, cell viability, MEC; type: cell-based, human; conditions: for cell viability compared to control: 24 hours
Protocol: as §2
MTT assay. MTT (3-(4,5-dimethyl thiazol-2-yl)-2,5-diphenyl tetrazolium bromide) assay was performed with adherent cell cultures using a culture medium free of phenol red and of serum. Solution containing MTT was metabolized by the cells (incubation period 3 hours). MTT is a tetrazolium salt (yellowish) that is cleaved to formazan crystals by the succinate dehydrogenase system which belongs to the mitochondrial respiratory chain, and is only active in viable cells. The mitochondrial succinate dehydrogenase reduces the MTT crystals into purple formazan in the presence of an electron coupling reagent. The more viable cells will be presented in a well, the more formazan dye will be produced. After solubilization of the MTT crystals with the solubilization solution MTT, the amount of dye will be measured spectrophotometrically at 540 nm.

T47D breast cancer cells = experiment: Xenograft tumor growth of T47D cells in Nu/Nu mice; type: in vivo
Protocol: Mice were inoculated with 17β-estradiol (1.7 mg/pellet) before the injection of 1×10^7 T47D cells subcutaneously into the inguinal region of mammary fat pad. Animals received treatment at 1 μM PQ1 or 10 μM tamoxifen. The results after 6 days of injection show a decrease in tumor growth of PQ1-treated animals compared to control or tamoxifen.
The anti-tumor effect of PQ1 was also observed in animal model. Nu/Nu mice were inoculated with estradiol-17β (1.7 mg/pellet) before the injection of 1×10^7 T47D breast cancer cells subcutaneously into inguinal region of mammary fat pad.
Xenograft Tumors of T47D cells in Nu/Nu Mice. Nu/Nu mice were ordered from The Jackson Laboratory. Mice were inoculated with estradiol-17β (1.7 mg/pellet) before the injection of 1×10^7 T47D breast cancer cells subcutaneously into inguinal region of mammary fat pad. Cell viability of T47D cells were performed prior to injection. The tumor size was measured in three dimensions with calipers every 2 days starting at Day 7. […] When tumors reached 30-50 mm^3, three animals were randomly assigned to each treatment group. Animals were injected with 1 μM of PQ1 or 10 μM of tamoxifen and a single injection of treatment was set for 7 days and daily measurement of tumor size was recorded.

COc1cc(NCCCN)c2nccc(C)c2c1Oc1cccc(C(F)(F)F)c1.O=C(O)CCC(=O)O [PQ1, 6-Methoxy-8-[(3-aminopropyl)amino]-4-methyl-5-(3-trifluoromethylphenyloxy) quinoline succinic acid]
increase in distance of dye transfer (T47D cells; 200 nM, compared to control): 8.5 fold
gap junction activity (SL/DT) compared to controls (T47D cells; 100, 200 and 500 nM): significant increase
gap junctional activity (SL/DT) (T47D cells; 200 and 500 nM for 40 minutes): significant increase
GJIC activity [1]: no effect
viability at 24 h, 0.2 µM ([2]; 200 nM, 24 hours, read-out: cell viability compared to controls): 67%
viability at 24 h, 1 µM ([2]; 1 μM): 65%
cell viability compared to control (MEC; 100 nM): 95%
cell viability compared to control (MEC; 200 nM): 103%
cell viability (MEC; 1 μM): 50%
tumor size compared to control (T47D breast cancer cells; Day 2, 1 μM PQ1, single injection): decrease
decrease of tumor growth (T47D breast cancer cells; Day 6 after one injection, 1 μM PQ1, compared to control): 70%
tumor growth compared to control or tamoxifen (T47D breast cancer cells; after 6 days of injection, 1 μM PQ1): decrease
